Assay results: patent US20250368649A1, “TETRAHYDROPYRIDOPYRIMIDINE PAN-KRAS INHIBITORS” (Mirati Therapeutics, Inc., priority 2022, published 2025)

Legend:
[1] = biological target: KRas G13D (Homo sapiens, UniProt P01116, G13D); format: binding; conditions: TR-FRET displacement, read-out: Binding to KRas (IC50 nM) G13D
[2] = biological target: KRas WT (Homo sapiens, UniProt P01116); test: KRas binding assay (TR-FRET displacement), KRas WT; conditions: TR-FRET displacement
[3] = biological target: KRas G12R (Homo sapiens, UniProt P01116, G12R); test: biochemical; conditions: Binding to KRas (IC50 nM) G12R, TR-FRET displacement, KRas G12R
KRas G12R, sequence (P01116 1-169 isoform P01116-2 G12R): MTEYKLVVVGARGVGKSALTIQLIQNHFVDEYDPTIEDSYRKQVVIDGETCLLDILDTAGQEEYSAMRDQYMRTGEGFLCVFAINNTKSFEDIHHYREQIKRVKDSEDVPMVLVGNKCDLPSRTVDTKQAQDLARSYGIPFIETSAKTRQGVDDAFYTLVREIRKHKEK

[4] = biological target: KRas Q61H (Homo sapiens, UniProt P01116, Q61H); test: KRas binding assay (TR-FRET displacement), KRas Q61H; conditions: TR-FRET displacement
KRas Q61H, sequence (P01116 1-169 isoform P01116-2 Q61H): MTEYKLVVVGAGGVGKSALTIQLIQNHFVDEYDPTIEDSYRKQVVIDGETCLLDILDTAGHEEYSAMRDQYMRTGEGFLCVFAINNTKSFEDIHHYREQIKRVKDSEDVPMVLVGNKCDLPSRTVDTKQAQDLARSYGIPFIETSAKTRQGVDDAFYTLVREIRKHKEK

[5] = biological target: KRas G12V (Homo sapiens, UniProt P01116, G12V); test: biochemical; conditions: Binding to KRas (IC50 nM) G12V, TR-FRET displacement, KRas G12V
KRas G12V, sequence (P01116 1-169 isoform P01116-2 G12V): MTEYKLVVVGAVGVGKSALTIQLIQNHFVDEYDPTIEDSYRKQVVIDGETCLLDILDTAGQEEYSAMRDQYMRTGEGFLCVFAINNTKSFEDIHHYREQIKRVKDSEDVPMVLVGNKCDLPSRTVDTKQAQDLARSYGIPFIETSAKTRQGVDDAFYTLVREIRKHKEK

[6] = biological target: KRas G12A (Homo sapiens, UniProt P01116, G12A); format: binding; conditions: TR-FRET displacement, read-out: Binding to KRas (IC50 nM) G12A
KRas G12A, sequence (P01116 1-169 isoform P01116-2 G12A): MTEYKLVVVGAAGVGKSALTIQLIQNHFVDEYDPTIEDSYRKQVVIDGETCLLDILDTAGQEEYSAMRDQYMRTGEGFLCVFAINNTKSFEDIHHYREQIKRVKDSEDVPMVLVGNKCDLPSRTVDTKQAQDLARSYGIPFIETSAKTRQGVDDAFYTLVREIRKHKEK

[7] = system: H358 cells; test: Inhibition of KRas-mediated phosphorylation of ERK (Cisbio HTRF pERK), H358 cells; format: cell-based; conditions: Homo sapiens, NCI-H358, single point at 100 nM, 3 hrs compound incubation
[8] = system: H727 cells; test: Inhibition of KRas-mediated phosphorylation of ERK (Cisbio HTRF pERK), H727 cells; format: cell-based; conditions: Homo sapiens; for IC50: NCI-H727, 3 h, 3 hr compound incubation, Cisbio pERK HTRF; for inhibition at 0.1 µM: NCI-H727, single point at 100 nM, 3 hrs compound incubation
[9] = biological target: KRas G12S (Homo sapiens, UniProt P01116, G12S); format: binding; conditions: TR-FRET displacement, read-out: Binding to KRas (IC50 nM) G12S
KRas G12S, sequence (P01116 1-169 isoform P01116-2 G12S): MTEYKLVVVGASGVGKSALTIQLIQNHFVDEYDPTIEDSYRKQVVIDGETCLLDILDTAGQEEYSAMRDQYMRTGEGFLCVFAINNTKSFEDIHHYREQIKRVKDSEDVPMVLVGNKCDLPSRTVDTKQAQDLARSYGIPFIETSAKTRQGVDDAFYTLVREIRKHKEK

[10] = system: A549 cells; test: Inhibition of KRas-mediated phosphorylation of ERK (Cisbio HTRF pERK), A549 cells; format: cell-based; conditions: Homo sapiens, single point at 100 nM, 3 hrs compound incubation
[11] = biological target: KRas G12D (Homo sapiens, UniProt P01116, G12D); test: biochemical; conditions: Binding to KRas (IC50 nM) G12D, TR-FRET displacement, KRas G12D
KRas G12D, sequence (P01116 1-169 isoform P01116-2 G12D): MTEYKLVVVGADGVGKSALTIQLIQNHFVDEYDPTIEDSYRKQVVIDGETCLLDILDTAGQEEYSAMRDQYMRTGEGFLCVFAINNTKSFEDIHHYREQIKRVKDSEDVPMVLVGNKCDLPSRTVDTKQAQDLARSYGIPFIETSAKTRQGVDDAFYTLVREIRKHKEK

[12] = biological target: KRas G12C (Homo sapiens, UniProt P01116, G12C); format: binding; conditions: TR-FRET displacement, read-out: Binding to KRas (IC50 nM) G12C
KRas G12C, sequence (P01116 1-169 isoform P01116-2 G12C): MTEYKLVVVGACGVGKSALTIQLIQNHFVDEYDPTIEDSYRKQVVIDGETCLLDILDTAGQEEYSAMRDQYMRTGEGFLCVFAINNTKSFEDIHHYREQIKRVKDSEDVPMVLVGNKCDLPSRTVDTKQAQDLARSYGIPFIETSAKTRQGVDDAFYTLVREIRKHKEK

[13] = system: ASPC1 cells; test: Inhibition of KRas-mediated phosphorylation of ERK (Cisbio HTRF pERK), ASPC1 cells; format: cell-based; conditions: Homo sapiens, AsPC-1 cells; for IC50: ASPC1, 3 h, 3 hr compound incubation, Cisbio pERK HTRF; for inhibition at 0.1 µM: ASPC1, single point at 100 nM, 3 hrs compound incubation
[14] = system: H460 cells; test: Inhibition of KRas-mediated phosphorylation of ERK (Cisbio HTRF pERK), H460 cells; format: cell-based; conditions: Homo sapiens, NCI-H460, single point at 100 nM, 3 hrs compound incubation
[15] = system: HCT116 cells; test: Inhibition of KRas-mediated phosphorylation of ERK (Cisbio HTRF pERK), HCT116 cells; format: cell-based; conditions: Homo sapiens, HCT-116, single point at 100 nM, 3 hrs compound incubation

KRas WT, sequence (P01116 1-169 isoform P01116-2): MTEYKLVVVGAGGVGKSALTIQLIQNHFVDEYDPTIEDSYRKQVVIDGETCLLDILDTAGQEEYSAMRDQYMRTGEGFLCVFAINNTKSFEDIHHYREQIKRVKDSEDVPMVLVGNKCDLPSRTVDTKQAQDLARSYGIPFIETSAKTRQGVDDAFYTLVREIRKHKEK
KRas G13D, sequence (P01116 1-169 isoform P01116-2 G13D): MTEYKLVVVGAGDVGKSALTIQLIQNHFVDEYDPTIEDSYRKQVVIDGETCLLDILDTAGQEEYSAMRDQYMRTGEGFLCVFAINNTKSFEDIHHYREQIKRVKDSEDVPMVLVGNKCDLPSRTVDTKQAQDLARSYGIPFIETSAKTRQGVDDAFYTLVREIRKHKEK

Row | Structure (SMILES) | IC50 [1] [nM] | IC50 [2] [nM] | IC50 [3] [nM] | IC50 [4] [nM] | IC50 [5] [nM] | IC50 [6] [nM] | inhibition at 0.1 µM [7] [%] | IC50 [8] [nM] | inhibition at 0.1 µM [8] [%] | IC50 [9] [nM] | inhibition at 0.1 µM [10] [%] | IC50 [11] [nM] | IC50 [12] [nM] | IC50 [13] [nM] | inhibition at 0.1 µM [13] [%] | inhibition at 0.1 µM [14] [%] | inhibition at 0.1 µM [15] [%]
1 | CN(C)C(=O)c1cc2n(n1)CCCN(c1nc(OCC34CCCN3CCC4)nc3c1CCN(c1cc(O)cc(Cl)c1C1CC1)C3)C2 [Example 437, 5-(7-(3-chloro-2-cyclopropyl-5-hydroxyphenyl)-2-((tetrahydro-1H-pyrrolizin-7a(5H)-yl)methoxy)-5,6,7,8-tetrahydropyrido[3,4-d]pyrimidin-4-yl)-N,N-dimethyl-5,6,7,8-tetrahydro-4H-pyrazolo[1,5-a][1,4]diazepine-2-carboxamide] | 14 | 8 | 5 | 12 | < 2 | 7 | -16 | 4480 | -2 | 4 | -10 | < 2 | 4 | 5200 | 2 | – | –
2 | Oc1cc(Cl)c(C2CC2)c(N2CCc3c(nc(OCC45CCCN4CCC5)nc3N3CCC[C@]4(C3)C[C@H](O)C4)C2)c1 [Example 440, (2s,4r)-6-(7-(3-chloro-2-cyclopropyl-5-hydroxyphenyl)-2-((tetrahydro-1H-pyrrolizin-7a(5H)-yl)methoxy)-5,6,7,8-tetrahydropyrido[3,4-d]pyrimidin-4-yl)-6-azaspiro[3.5]nonan-2-ol] | 73 | 46 | 36 | 63 | 13 | 46 | -1 | 6510 | -10 | 41 | -6 | 44 | 30 | > 10000 | -10 | – | –
3 | Oc1cc(Cl)c(C2CC2)c(N2CCc3c(nc(OCC45CCCN4CCC5)nc3N3CCC[C@]4(C3)C[C@@H](O)C4)C2)c1 [Example 441, (2r,4s)-6-(7-(3-chloro-2-cyclopropyl-5-hydroxyphenyl)-2-((tetrahydro-1H-pyrrolizin-7a(5H)-yl)methoxy)-5,6,7,8-tetrahydropyrido[3,4-d]pyrimidin-4-yl)-6-azaspiro[3.5]nonan-2-ol] | 27 | 19 | 14 | 21 | 8 | 19 | 11 | 5710 | -17 | 15 | -33 | 24 | 11 | > 10000 | 9 | – | –
4 | Cc1cc2[nH]ncc2c(N2CCc3c(nc(OCC45CCCN4CCC5)nc3N3CCCC4(CC(=O)N4)C3)C2)c1C (stereo not drawn) [Example 456, 6-(7-(5,6-dimethyl-1H-indazol-4-yl)-2-((hexahydro-1H-pyrrolizin-7a-yl)methoxy)-5,6,7,8-tetrahydropyrido[3,4-d]pyrimidin-4-yl)-1,6-diazaspiro[3.5]nonan-2-one] | 59 | 53 | 17 | 48 | 18 | 35 | – | > 10000 | – | 33 | – | 38 | 32 | > 10000 | – | – | –
5 | Cc1cc2[nH]ncc2c(N2CCc3c(nc(OCC45CCCN4CCC5)nc3N3CC4CC(O)C(C4)C3)C2)c1C (stereo not drawn) [Example 457, 3-(7-(5,6-dimethyl-1H-indazol-4-yl)-2-((hexahydro-1H-pyrrolizin-7a-yl)methoxy)-5,6,7,8-tetrahydropyrido[3,4-d]pyrimidin-4-yl)-3-azabicyclo[3.2.1]octan-6-ol] | 1870 | 1590 | 692 | 2190 | 805 | 1250 | – | > 10000 | – | 1270 | – | 3560 | 1910 | > 10000 | – | – | –
6 | Cc1cc2[nH]ncc2c(N2CCc3c(nc(OCC45CCCN4CCC5)nc3N3CC4C(=O)NC(=O)C4C3)C2)c1C (stereo not drawn) [Example 458, 5-(7-(5,6-dimethyl-1H-indazol-4-yl)-2-((hexahydro-1H-pyrrolizin-7a-yl)methoxy)-5,6,7,8-tetrahydropyrido[3,4-d]pyrimidin-4-yl)tetrahydropyrrolo[3,4-c]pyrrole-1,3(2H,3aH)-dione] | 168 | 143 | 145 | 179 | 76 | 148 | – | > 10000 | – | 52 | – | 48 | 153 | > 10000 | – | – | –
7 | Cc1cc2[nH]ncc2c(N2CCc3c(nc(OCC45CCCN4CCC5)nc3N3CCCC4(C3)NC(=O)NC4=O)C2)c1C (stereo not drawn) [Example 459, 7-(7-(5,6-dimethyl-1H-indazol-4-yl)-2-((hexahydro-1H-pyrrolizin-7a-yl)methoxy)-5,6,7,8-tetrahydropyrido[3,4-d]pyrimidin-4-yl)-1,3,7-triazaspiro[4.5]decane-2,4-dione] | 9 | 10 | 11 | 8 | 8 | 11 | – | > 10000 | – | 11 | – | 16 | 8 | > 10000 | – | – | –
8 | Cc1cc2[nH]ncc2c(N2CCc3c(nc(OCC45CCCN4CCC5)nc3N3CCOCC(C)(O)C3)C2)c1C (stereo not drawn) [Example 460, 4-(7-(5,6-dimethyl-1H-indazol-4-yl)-2-((hexahydro-1H-pyrrolizin-7a-yl)methoxy)-5,6,7,8-tetrahydropyrido[3,4-d]pyrimidin-4-yl)-6-methyl-1,4-oxazepan-6-ol] | 169 | 137 | 216 | 188 | 108 | 142 | – | 5360 | – | 173 | – | 67 | 146 | 1620 | – | – | –
9 | Cc1cc2[nH]ncc2c(N2CCc3c(nc(OCC45CCCN4CCC5)nc3N3CCCC4(CNC(=O)N4)C3)C2)c1C (stereo not drawn) [Example 461, 7-(7-(5,6-dimethyl-1H-indazol-4-yl)-2-((hexahydro-1H-pyrrolizin-7a-yl)methoxy)-5,6,7,8-tetrahydropyrido[3,4-d]pyrimidin-4-yl)-1,3,7-triazaspiro[4.5]decan-2-one] | 26 | 23 | 22 | 26 | 12 | 22 | – | > 10000 | – | 23 | – | 11 | 19 | > 10000 | – | – | –
10 | O=C1NC(=O)[C@]2(CCCN(c3nc(OCC45CCCN4CCC5)nc4c3CCN(c3c(C5CC5)c(Cl)cc5[nH]ncc35)C4)C2)N1 [Example 471, (R)-7-(7-(6-chloro-5-cyclopropyl-1H-indazol-4-yl)-2-((hexahydro-1H-pyrrolizin-7a-yl)methoxy)-5,6,7,8-tetrahydropyrido[3,4-d]pyrimidin-4-yl)-1,3,7-triazaspiro[4.5]decane-2,4-dione] | < 2 | < 2 | < 2 | < 2 | < 2 | < 2 | – | 2880 | – | < 2 | – | < 2 | < 2 | 5320 | – | -3 | -3
11 | CN1CCC[C@H]1COc1nc2c(c(N3CCCC4(CC(O)C4)C3)n1)CCN(c1cccc3cccc(Cl)c13)C2 (stereo partly drawn) [Example 484, (S)-6-(7-(8-chloronaphthalen-1-yl)-2-((1-methylpyrrolidin-2-yl)methoxy)-5,6,7,8-tetrahydropyrido[3,4-d]pyrimidin-4-yl)-6-azaspiro[3.5]nonan-2-ol] | 4430 | 2960 | 1810 | 3610 | 1180 | 2540 | – | > 10000 | – | 2550 | – | 3120 | 1540 | > 10000 | – | – | –
